In patent publication US8247399B2, “Photoactive metal nitrosyls for blood pressure regulation and cancer therapy” (The Regents of the University of California, priority 2004, dated 2012):

Tests used:
[1] = test system: rat aortic rings; experiment: Relaxation of rat thoracic aorta rings precontracted with phenylephrine; details: for concentration at which relaxation effect is shown: Ru-drug under UV light, DEA/NO control drug
Procedure: Male rats (200-250 g; Sprague-Dawley) were stunned and killed by cervical dislocation. The thoracic aortas were carefully removed, cleaned of connective tissue and cut into 3-4 ring segments of approximately 4 mm in length. Aortic rings were mounted in 10 mL organ baths containing Krebs-bicarbonate buffer (composition (mM): Na^+ 143; K^+ 5.9; Ca^2+ 2.5; Mg^2+ 1.2; Cl^− 128; HCO3^− 25; HPO4^2− 1.2; SO4^2− 1.2; D-glucose 11) maintained at 37° C. and gassed with 95% O2/5% CO2. Tension was initially set at 1 g and reset at intervals following an equilibrium period of 1 hour during which time fresh Krebs-bicarbonate buffer was replaced every 15-20 minutes. After equilibrium, the rings were primed with KCl (4.8×10^−2 M) before a supramaximal concentration of phenylephrine (PE; 10^−6 M) was added. Once this response had stabilized, acetylcholine (ACH; 10^−6M) was added to the bath to assess the integrity of endothelium of WT vessels. If the contractions to PE were not maintained, or relaxations greater than 50% of the PE-induced tone to ACH were not observed, the tissues were discarded.
Tissues were then washed for 30 minutes (by addition of fresh Krebs-bicarbonate buffer at 15 minutes intervals) after which cumulative concentrations of PE (10^−9-10^−6 M) were added to the organ bath. The tissues were then washed over 60 minutes to restore basal tone before contracting to approximately 80% of the maximum PE-induced response. Once a stable response to PE was achieved, cumulative concentration-response curves to the NO-donors were constructed in the presence and absence of light ([…]) and the soluble […] ODQ ([…]).

[2] = Photorelease (photodissociation) of NO from the metal nitrosyl in solution under illumination; format: physicochemical; details: for type of light that releases NO: in DMF, UV-cut filters
From the text: FIG. 7(A) provides a plot of KNO values versus light power. Increase in A550 of a solution of [(PaPy3)Fe(NO)](ClO4)2 in MeCN upon illumination with a 60 W tungsten lamp (Patra et al., Inorg Chem, 42:6812-6823, 2003), KNO (×10^3 s^−1)=5.60±0.014.
FIG. 8(C) provides a plot of the electronic absorption spectrum of [(bpb)Ru(NO)(Cl)] (broken line) and [(Me2bqb)Ru(NO)(Cl)] (solid line) in DMF. Both nitrosyls are photolabile.
(§1) Dashed line: met-Mb; dash-dot line: reduced Mb; dotted line: a mixture of [(PaPy3)Ru(NO)](BF4)2 and reduced Mb (1.5:1) under ordinary light (20 min); solid line: same mixture exposed to UV (30 s). […] Dash-dot line: oxidized and dash line: reduced enzyme; dotted line: reduced enzyme plus [(PaPy3)Ru(NO)](BF4)2 under ordinary light (20 min); solid line: same mixture exposed to UV light for 30 s (Patra and Mascharak, Inorg Chem, 42:7363-7365, 2003, herein incorporated by reference).
As described herein, nitrosyls like [Fe(PaPy3)(NO)](CIO4)2 and [Mn(PaPy3)(NO)](BF4)2 are converted into the corresponding solvato species [M(PaPy3)(solv)]^2+ following NO loss. Clean isosbestic points in the multiple trace spectra (e.g., FIG. 6B and FIG. 6C) indicate that the [M(PaPy3)(NO)]^2+→[M(PaPy3)(solv)]^2+ transformation is likely devoid of other intermediates. […] Preliminary actinometric measurements have afforded a quantum yield of 0.12 for the light reaction of [Ru(PaPy3)(NO)](BF4)2 in water. Collectively, these properties indicate that the nitrosyl complexes disclosed herein are good light-induced NO donors.
The light characteristics of any one of these metal nitrosyls can be changed (tuned) with minor alterations in the ligand frames such as changing a donor atom or ring size. This is a tremendous advantage of the present approach, thereby freeing users of this technology from the light requirements of photoactive nitrosyls of the prior art, which hereto have been found serendipitously. […] (BF4)2 releases NO only under UV light (λ<350 nm).

[3] = biological target: T1, papain (Carica papaya, UniProt P00784); experiment: Papain inhibition under light (l-BApNA substrate); format: biochemical; details: 3 mM nitrosyl 1 mL + papain 3 mg/mL 1 mL, 50 W tungsten lamp 3 min, 25° C., pH 6.2
T1 sequence (P00784 134-345): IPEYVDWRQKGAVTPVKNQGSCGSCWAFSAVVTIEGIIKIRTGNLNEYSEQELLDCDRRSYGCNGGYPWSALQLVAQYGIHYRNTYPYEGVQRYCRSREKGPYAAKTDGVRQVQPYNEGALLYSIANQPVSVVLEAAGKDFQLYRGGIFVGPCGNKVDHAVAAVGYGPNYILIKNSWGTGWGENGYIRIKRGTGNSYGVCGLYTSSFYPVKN
Procedure: Twice-crystallized papain was activated by stirring the enzyme in 50 mM phosphate buffer (pH 6.2) containing 10 mM dithiothreitol (DTT) for 24 h. The solution was then passed through a Pharmacia 20 mL desalting column equipped with a BioRad FPLC absorbance/electrical-conducting detector at 4° C. The activated protein (devoid of DTT) eluted from the column in 2 minutes at a flow rate of 2 mL/min, and was subsequently lyophilized and stored at −20° C.
Papain activity was determined spectrophotometrically at 410 nm by monitoring the formation of p-nitroaniline from the substrate Nα-Benzoyl-l-arginine-p-nitroanilide (l-BApNA). A 1.5 mM stock solution of l-BApNA was prepared in 50 mM phosphate buffer (pH 6.2, 1 mM EDTA, 0.1 M NaCl) and stored at room temperature. A 4.6 μM stock solution of active papain was also prepared in 50 mM phosphate buffer (pH 6.2, 1 mM EDTA, 0.1 M NaCl) and stored at 0° C. Finally, a freshly prepared 3.0 mM stock solution of 1 was prepared in 50 mM phosphate buffer (pH 6.2, 1 mM EDTA, 0.1 M NaCl) and stored in the dark.
[…] The mixture was then exposed to a 50 W tungsten bulb (Afshar at al., Inorg Chem, 43:5736-5743, 2004) for 60 s and 350 μL of the substrate was quickly added. The residual enzyme activity was monitored at 25° C. […] After each exposure, 350 μL of the substrate was added to the solution and the residual enzyme activity was monitored at 25° C. […]

[4] = test system: rat aortic smooth muscle cells; experiment: cGMP generation in cultured rat aortic smooth muscle cells; format: cell-based
Procedure: Primary rat aortic smooth muscle cells were cultured and exposed to increasing log doses of Ru—NO with and without a 5 minute exposure to low-intensity UV light (λmax=254 nm) followed by a 10 minute incubation. The cells were then lysed and the cGMP production was assayed Cyclic GMP accumulation was measured using a commercially available ELISA kit (Amersham Biosciences) as per the manufacturer instructions.

[5] = test system: reduced Mb; experiment: Light-triggered NO transfer to reduced myoglobin; format: biochemical; details: aqueous solution, low intensity UV light 30 s, nitrosyl:Mb 1.5:1
Procedure: as §1
(§2) When this process is repeated in presence of reduced Mb, the 434 nm Soret band of reduced Mb is rapidly changed to 420 nm indicating formation of the Mb-NO adduct (FIG. 9B). Clearly [Ru(PaPy3)(H2O)](BF4)2 acts as an efficient NO donor that is activated by light. Similar results have been obtained with cytochrome c oxidase. Exposure of a mixture of [Ru(PaPy3)(H2O)](BF4)2 and reduced cytochrome c oxidase to UV light rapidly generated the NO adduct (Soret band at 428 nm, FIG. 9C). […] Other compounds according to the disclosure herein are known to, or are predicted to, have similar results with regard to being able to facilitate NO transfer to Mb and Hb.

[6] = test system: reduced cyt c oxidase; experiment: Light-triggered NO transfer to reduced cytochrome c oxidase; format: biochemical; details: low intensity UV light 30 s
Procedure: as §1, §2

Q: For `CCN(CC)/[N+]([O-])=N/[O-].[Na+]` [DEA/NO, reference compound], which “concentration at which relaxation effect is shown” value [1] is on record?
A: Its value is 0.01 µM.

Q: Which “type of light that releases NO” value [2] does the source give for [(Me2bqb)Ru(NO)(Cl)] here?
A: Its value is “releases NO upon illumination with visible light”.

Q: Which “wavelength of light under which NO is released” value [2] does the source give for [(PaPy3)Fe(NO)](ClO4)2 here?
A: The value was about 500 nm.

Q: What about the “KNO (rate of NO loss)” value ([2]; in MeCN, 60 W tungsten lamp) of the same molecule?
A: The value was 5.60±0.014 ×10^3 s^−1.

Q: For [(PaPy3)Mn(NO)]ClO4, which “papain enzymatic activity after exposure” value [3] is on record?
A: Its value is “completely eliminating the enzymatic activity”.

Q: For [(PaPy3)Ru(NO)](BF4)2, which “wavelength of light under which NO is released” value [2] is on record?
A: The value was under 350 nm.

Q: What about the “quantum yield of the light reaction” value ([2]; in water, preliminary actinometric measurements) of the same molecule?
A: Its value is 0.12.

Q: And the “increase in cGMP production” value ([4]; 0.1 mM, low-intensity UV light (λmax=254 nm) 5 min)?
A: The value was 13 fold.

Q: And the “increase in cGMP concentration in the dark” value ([4]; dark)?
A: Its value is “not observed in the dark”.

Q: And the “light dependence of relaxation effect” value [1]?
A: Its value is “only under exposure to light”.

Q: What about the “concentration at which relaxation effect is shown” value [1] of the same molecule?
A: Its value is 10 µM.

Q: What about the “relaxation compared with conventional NO donor” value ([1]; UV light) of the same molecule?
A: Its value is “comparable to that observed upon treatment of the tissue with a conventional NO donor (DEA/NO)”.

Q: And the “contraction of tissue when the light was turned off” value ([1]; light turned off)?
A: Its value is about 25%.

Q: What about the “formation of Mb-NO adduct” value [5] of the same molecule?
A: The value was “conversion of reduced Mb to Mb-NO”.

Q: And the “formation of cyt c oxidase NO-adduct” value [6]?
A: The value was “conversion of reduced cyt c oxidase to its NO-adduct”.

Q: For [(bpb)Ru(NO)(Cl)], which “type of light that releases NO” value [2] is on record?
A: The value was “releases NO upon illumination with UV light”.
